The source of these data is article doi:10.1101/2021.07.20.453049v1, “Integration of the cyanophage-encoded phosphate binding protein into the cyanobacterial phosphate uptake system” (biorxiv, 2021).

Experiment [1] deals with phage PstS (cyanophage P-SSM2 PstS) (Prochlorococcus phage P-SSM2, UniProt Q58MA7). As to the kind of experiment: biochemical.
For experiment [2], the target named is T1, host PstS (Prochlorococcus NATL2A PstS) (Prochlorococcus marinus, UniProt Q46KP5).
T1 construct: gene PMN2A_0441
T1 sequence (Q46KP5 25-323): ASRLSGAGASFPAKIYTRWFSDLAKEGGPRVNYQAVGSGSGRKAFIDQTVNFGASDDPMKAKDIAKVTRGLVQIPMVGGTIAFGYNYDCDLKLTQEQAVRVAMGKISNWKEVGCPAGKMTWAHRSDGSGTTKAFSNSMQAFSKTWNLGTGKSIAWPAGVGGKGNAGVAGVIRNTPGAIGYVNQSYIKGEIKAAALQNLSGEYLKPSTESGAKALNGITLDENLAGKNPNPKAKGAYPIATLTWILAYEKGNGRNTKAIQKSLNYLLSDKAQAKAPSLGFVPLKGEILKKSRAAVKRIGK
The note with it: 20 mM Tris-HCl, 200 mM NaCl, pH 7.5, room temperature, 24 h; trace 32P tracer with cold NaH2PO4.

Experiment [3] deals with T2, Syn19 PstS (group II cyanophage PstS) (Synechococcus phage Syn19, UniProt E3SQC4).
T2 construct: recombinant, E. coli BL21(DE3), pET-22b, C-terminal His6 tag
T2 sequence (E3SQC4 19-326): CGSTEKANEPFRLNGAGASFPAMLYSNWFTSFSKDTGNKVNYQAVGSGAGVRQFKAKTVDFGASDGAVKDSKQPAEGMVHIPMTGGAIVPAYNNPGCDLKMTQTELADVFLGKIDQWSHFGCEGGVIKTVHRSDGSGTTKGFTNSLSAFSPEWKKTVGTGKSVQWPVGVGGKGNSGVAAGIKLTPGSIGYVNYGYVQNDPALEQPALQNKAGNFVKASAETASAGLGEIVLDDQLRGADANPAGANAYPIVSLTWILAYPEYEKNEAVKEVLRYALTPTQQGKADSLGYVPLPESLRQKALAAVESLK
Type of experiment: binding. The note with it: crystallised with 5 mM sodium phosphate, pH 7.5; 18% PEG 3350, 0.2 M sodium formate.

Broadly, the Kd is the free concentration of one partner at which half of the binding sites on the other are occupied at equilibrium, for simple one-to-one binding.

Molecules are shown by their SMILES.

Chain of phage PstS (cyanophage P-SSM2 PstS) (Q58MA7 21-321): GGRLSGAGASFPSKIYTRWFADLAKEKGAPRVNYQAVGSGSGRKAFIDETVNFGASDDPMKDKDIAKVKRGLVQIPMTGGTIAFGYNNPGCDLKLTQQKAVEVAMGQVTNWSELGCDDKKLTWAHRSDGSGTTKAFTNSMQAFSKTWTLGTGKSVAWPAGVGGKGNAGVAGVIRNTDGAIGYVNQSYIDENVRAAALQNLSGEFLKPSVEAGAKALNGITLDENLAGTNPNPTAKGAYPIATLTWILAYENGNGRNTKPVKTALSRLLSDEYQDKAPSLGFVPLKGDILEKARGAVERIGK

For the molecule `O=P(O)(O)O` [phosphate], the dissociation constant Kd in experiment [1] was found to be 1390 ± 220 nM; in experiment [2], 820 ± 440 nM. Moreover, in experiment [3], the “X-ray crystal structure, 1.70 Å” value was “The PstS structure of cyanophage Syn19 in complex with PO4”.
